Measurements published in ChEMBL document CHEMBL4004878, “Design, synthesis and structure-bactericidal activity relationships of novel 9-oxime ketolides and reductive epimers of acylides” (2017).
In brackets after ≈: the same amount, converted by molar mass.

What was measured:
Format in all cases: functional
[1] = system: Streptococcus pneumoniae; assay: Bacteriostatic activity against […] Streptococcus pneumoniae ATCC 49619 after 20 to 24 hrs by two-fold microbroth dilution method
[2] = system: Streptococcus pyogenes; assay: Bactericidal activity against Streptococcus pyogenes 01-968 expressing inducible ermA incubated for 20 to 24 hrs followed by sub-culturing for 24 hrs in absence of compound
[3] = system: Staphylococcus aureus; assay: Bacteriostatic activity against methicillin-resistant Staphylococcus aureus PU32 expressing inducible ermA after 20 hrs by two-fold microbroth dilution method; settings: PU32, 20 h
[4] = system: Moraxella catarrhalis; assay: Bactericidal activity against erythromycin-susceptible Moraxella catarrhalis 13L332 incubated for 20 hrs followed by sub-culturing for 24 hrs in absence of compound
[5] = system: Streptococcus pyogenes; assay: Bacteriostatic activity against Streptococcus pyogenes 01-968 expressing inducible ermA after 20 to 24 hrs by two-fold microbroth dilution method
[6] = system: Moraxella catarrhalis; assay: Bacteriostatic activity against erythromycin-susceptible Moraxella catarrhalis 13L332 after 20 hrs by two-fold microbroth dilution method; settings: 13L332, 20 h
[7] = system: Streptococcus pneumoniae; assay: Bactericidal activity against penicillin-susceptible Streptococcus pneumoniae PU09 incubated for 20 to 24 hrs followed by sub-culturing for 24 hrs in absence of compound
[8] = system: Staphylococcus aureus; assay: Bactericidal activity against methicillin-resistant Staphylococcus aureus PU32 expressing inducible ermA incubated for 20 hrs followed by sub-culturing for 24 hrs in absence of compound
[9] = system: Streptococcus pneumoniae; assay: Bacteriostatic activity against penicillin-susceptible Streptococcus pneumoniae PU09 after 20 to 24 hrs by two-fold microbroth dilution method
[10] = system: Streptococcus pneumoniae; assay: Bactericidal activity against […] Streptococcus pneumoniae ATCC 49619 incubated for 20 to 24 hrs followed by sub-culturing for 24 hrs in absence of compound
[11] = system: Staphylococcus aureus; assay: Bactericidal activity against methicillin-resistant Staphylococcus aureus PU20 expressing constitutive ermC incubated for 20 hrs followed by sub-culturing for 24 hrs in absence of compound
[12] = system: Staphylococcus aureus; assay: Bacteriostatic activity against methicillin-resistant Staphylococcus aureus PU20 expressing constitutive ermC after 20 hrs by two-fold microbroth dilution method; settings: PU20, 20 h
[13] = system: Streptococcus pneumoniae; assay: Ratio of MBC to MIC for […] Streptococcus pneumoniae ATCC 49619
[14] = system: Streptococcus pyogenes; assay: Bacteriostatic activity against Streptococcus pyogenes 12-207 expressing mef after 20 to 24 hrs by two-fold microbroth dilution method
[15] = system: Haemophilus influenzae; assay: Bacteriostatic activity against azithromycin-susceptible/ampicillin-resistant Haemophilus influenzae 11P307 after 20 to 24 hrs by two-fold microbroth dilution method
[16] = system: Haemophilus influenzae; assay: Ratio of MBC to MIC for azithromycin susceptible/ampicillin-resistant Haemophilus influenzae 11P307
[17] = system: Streptococcus pyogenes; assay: Bactericidal activity against Streptococcus pyogenes 12-207 expressing mef incubated for 20 to 24 hrs followed by sub-culturing for 24 hrs in absence of compound
[18] = system: Haemophilus influenzae; assay: Bactericidal activity against azithromycin susceptible/ampicillin-resistant Haemophilus influenzae 11P307 incubated for 20 to 24 hrs followed by sub-culturing for 24 hrs in absence of compound
[19] = system: Streptococcus pyogenes; assay: Ratio of MBC to MIC for Streptococcus pyogenes 01-968 expressing inducible ermA
[20] = system: Streptococcus pneumoniae; assay: Ratio of MBC to MIC for penicillin-susceptible Streptococcus pneumoniae PU09
[21] = system: Moraxella catarrhalis; assay: Ratio of MBC to MIC against erythromycin-susceptible Moraxella catarrhalis 11B366
[22] = system: Moraxella catarrhalis; assay: Bactericidal activity against erythromycin-susceptible Moraxella catarrhalis 11B366 incubated for 20 hrs followed by sub-culturing for 24 hrs in absence of compound
[23] = system: Moraxella catarrhalis; assay: Bacteriostatic activity against erythromycin-susceptible Moraxella catarrhalis 11B366 after 20 hrs by two-fold microbroth dilution method; settings: 11B366, 20 h
[24] = system: Staphylococcus aureus; assay: Ratio of MBC to MIC for methicillin-resistant Staphylococcus aureus PU20 expressing constitutive ermC
[25] = system: Staphylococcus aureus; assay: Ratio of MBC to MIC against methicillin-resistant Staphylococcus aureus PU32 expressing inducible ermA
[26] = system: Streptococcus pyogenes; assay: Ratio of MBC to MIC for Streptococcus pyogenes 12-207 expressing mef
[27] = system: Moraxella catarrhalis; assay: Ratio of MBC to MIC against erythromycin-susceptible Moraxella catarrhalis 13L332

| SMILES | MIC [1] [µg/mL] | MBC [2] [µg/mL] | MIC [3] [µg/mL] | MBC [4] [µg/mL] | MIC [5] [µg/mL] | MIC [6] [µg/mL] | MBC [7] [µg/mL] | MBC [8] [µg/mL] | MIC [9] [µg/mL] | MBC [10] [µg/mL] | MBC [11] [µg/mL] | MIC [12] [µg/mL] | Ratio [13] | MIC [14] [µg/mL] | MIC [15] [µg/mL] | MBC [17] [µg/mL] | Ratio [19] | Ratio [20] | Ratio [21] | Ratio [25] | further results |
| --- | --- | --- | --- | --- | --- | --- | --- | --- | --- | --- | --- | --- | --- | --- | --- | --- | --- | --- | --- | --- | --- |
| CC[C@H]1OC(=O)[C@H](C)[C@H](OC(=O)c2ccccn2)[C@H](C)[C@@H](O[C@@H]2O[C@H](C)C[C@H](N(C)C)[C@H]2O)[C@](C)(OC)C[C@@H](C)/C(=N\OC)[C@H](C)[C@H]2OC(=O)O[C@@]21C | 64 (≈ 85.3 µM) | > 64 | > 256 | > 64 | > 64 | 32 (≈ 42.7 µM) | > 64 | > 256 | 64 (≈ 85.3 µM) | > 64 | > 256 | > 256 | – | – | – | – | – | – | – | – | – |
| CC[C@H]1OC(=O)[C@H](C)C(=O)[C@H](C)[C@@H](O[C@@H]2O[C@H](C)C[C@H](N(C)C)[C@H]2O)[C@](C)(OC)C[C@@H](C)/C(=N\OCC#Cc2cncc3ccccc23)[C@H](C)[C@H]2OC(=O)O[C@@]21C | ≤ 0.008 | > 2 | 1 (≈ 1.26 µM) | – | 0.25 (≈ 0.315 µM) | – | 0.5 (≈ 0.63 µM) | > 8 | 0.25 (≈ 0.315 µM) | 0.031 (≈ 0.039 µM) | 64 (≈ 80.6 µM) | 32 (≈ 40.3 µM) | >=4 | 0.016 (≈ 0.0202 µM) | 16 (≈ 20.2 µM) | > 0.125 | >8 | 2 | 1 | >8 | Ratio [16]: >8; MBC [18]: > 128 µg/mL; MBC [22]: 4 µg/mL (≈ 5.04 µM); MIC [23]: 4 µg/mL (≈ 5.04 µM); Ratio [24]: 2; Ratio [26]: >8 |
| C=CCN(C)[C@H]1C[C@@H](C)O[C@@H](O[C@@H]2[C@@H](C)C(=O)[C@@H](C)C(=O)O[C@H](CC)[C@@]3(C)OC(=O)O[C@@H]3[C@@H](C)/C(=N/OC/C=C/c3cnc4ccccc4c3)[C@H](C)C[C@@]2(C)OC)[C@@H]1O | 0.062 (≈ 0.0754 µM) | 4 (≈ 4.87 µM) | 2 (≈ 2.43 µM) | – | 0.5 (≈ 0.608 µM) | – | 0.5 (≈ 0.608 µM) | > 16 | 0.5 (≈ 0.608 µM) | 0.25 (≈ 0.304 µM) | – | > 256 | 4 | 0.25 (≈ 0.304 µM) | 32 (≈ 38.9 µM) | 1 (≈ 1.22 µM) | 8 | 1 | 2 | >8 | Ratio [16]: >8; MBC [18]: > 256 µg/mL; MBC [22]: 16 µg/mL (≈ 19.5 µM); MIC [23]: 8 µg/mL (≈ 9.73 µM); Ratio [26]: 4 |
| CC[C@H]1OC(=O)[C@@](C)(F)C(=O)[C@H](C)[C@@H](O[C@@H]2O[C@H](C)C[C@H](N(C)C)[C@H]2O)[C@](C)(OC)C[C@@H](C)/C(=N\OCC#Cc2cncc3ccccc23)[C@H](C)[C@H]2OC(=O)O[C@@]21C | ≤ 0.008 | > 0.5 | 1 (≈ 1.23 µM) | – | 0.062 (≈ 0.0764 µM) | – | 1 (≈ 1.23 µM) | > 8 | 0.25 (≈ 0.308 µM) | 0.031 (≈ 0.0382 µM) | 128 (≈ 158 µM) | 32 (≈ 39.4 µM) | >=4 | 0.031 (≈ 0.0382 µM) | 8 (≈ 9.85 µM) | > 0.25 | >8 | 4 | 2 | >8 | Ratio [16]: >8; MBC [18]: > 64 µg/mL; MBC [22]: 2 µg/mL (≈ 2.46 µM); MIC [23]: 1 µg/mL (≈ 1.23 µM); Ratio [24]: 4; Ratio [26]: >8 |
| CC[C@H]1OC(=O)[C@H](C)[C@@H](OC(=O)Cc2ccccn2)[C@H](C)[C@@H](O[C@@H]2O[C@H](C)C[C@H](N(C)C)[C@H]2O)[C@](C)(OC)C[C@@H](C)/C(=N\OC)[C@H](C)[C@H]2OC(=O)O[C@@]21C | 0.125 (≈ 0.164 µM) | 2 (≈ 2.62 µM) | 4 (≈ 5.24 µM) | > 2 | 0.25 (≈ 0.327 µM) | 0.25 (≈ 0.327 µM) | 1 (≈ 1.31 µM) | > 32 | 0.5 (≈ 0.655 µM) | 0.25 (≈ 0.327 µM) | > 256 | > 256 | – | – | – | – | 8 | 2 | – | >8 | Ratio [27]: >8 |
| CC[C@H]1OC(=O)[C@H](C)[C@H](OC(=O)Cc2ccccn2)[C@H](C)[C@@H](O[C@@H]2O[C@H](C)C[C@H](N(C)C)[C@H]2O)[C@](C)(OC)C[C@@H](C)/C(=N\OC)[C@H](C)[C@H]2OC(=O)O[C@@]21C | > 64 | > 64 | > 256 | > 64 | > 64 | 32 (≈ 41.9 µM) | > 64 | > 256 | 32 (≈ 41.9 µM) | > 64 | > 256 | > 256 | – | – | – | – | – | – | – | – | – |
| CC[C@H]1OC(=O)[C@@](C)(F)[C@H](OC(=O)Cc2ccccn2)[C@H](C)[C@@H](O[C@@H]2O[C@H](C)C[C@H](N(C)C)[C@H]2O)[C@](C)(OC)C[C@@H](C)/C(=N\OC)[C@H](C)[C@H]2OC(=O)O[C@@]21C | 64 (≈ 81.9 µM) | > 64 | > 256 | 64 (≈ 81.9 µM) | 64 (≈ 81.9 µM) | 32 (≈ 40.9 µM) | > 64 | > 256 | 32 (≈ 40.9 µM) | 64 (≈ 81.9 µM) | > 256 | > 256 | 1 | – | – | – | – | – | – | – | Ratio [27]: 2 |
| CC[C@H]1OC(=O)[C@H](C)[C@@H](OC(=O)Cc2ccccn2)[C@H](C)[C@@H](O[C@@H]2O[C@H](C)C[C@H](N(C)C)[C@H]2O)[C@](C)(OC)C[C@@H](C)/C(=N\OC/C=C/c2cccnc2)[C@H](C)[C@H]2OC(=O)O[C@@]21C | 16 (≈ 18.5 µM) | > 64 | 256 (≈ 295 µM) | 64 (≈ 73.8 µM) | 64 (≈ 73.8 µM) | 32 (≈ 36.9 µM) | > 64 | > 256 | 8 (≈ 9.23 µM) | > 64 | > 256 | > 256 | >4 | – | – | – | – | >8 | – | – | Ratio [27]: 2 |
| CC[C@H]1OC(=O)[C@H](C)[C@H](OC(=O)Cc2ccccn2)[C@H](C)[C@@H](O[C@@H]2O[C@H](C)C[C@H](N(C)C)[C@H]2O)[C@@](C)(OC/C=C/c2cnc3ccccc3c2)C[C@@H](C)/C(=N\O)[C@H](C)[C@H]2OC(=O)O[C@@]21C | 4 (≈ 4.43 µM) | 64 (≈ 70.9 µM) | 64 (≈ 70.9 µM) | > 4 | 8 (≈ 8.86 µM) | 0.5 (≈ 0.554 µM) | 16 (≈ 17.7 µM) | > 256 | 8 (≈ 8.86 µM) | 16 (≈ 17.7 µM) | > 256 | 256 (≈ 283 µM) | 4 | – | – | – | 8 | 2 | – | >4 | Ratio [27]: >8 |
| C#CCN(C)[C@H]1C[C@@H](C)O[C@@H](O[C@@H]2[C@@H](C)C(=O)[C@@H](C)C(=O)O[C@H](CC)[C@@]3(C)OC(=O)O[C@@H]3[C@@H](C)/C(=N/OC/C=C/c3cnc4ccccc4c3)[C@H](C)C[C@@]2(C)OC)[C@@H]1O | 0.25 (≈ 0.305 µM) | > 4 | 16 (≈ 19.5 µM) | – | 0.5 (≈ 0.61 µM) | – | 4 (≈ 4.88 µM) | > 16 | 1 (≈ 1.22 µM) | 1 (≈ 1.22 µM) | – | > 256 | – | 1 (≈ 1.22 µM) | > 256 | > 8 | >8 | 4 | >8 | – | MBC [22]: > 256 µg/mL; MIC [23]: 32 µg/mL (≈ 39 µM); Ratio [26]: >8 |
